From ChEMBL document CHEMBL1146524, “Isolation of homodolastatin 16, a new cyclic depsipeptide from a Kenyan collection of Lyngbya majuscula” (J Nat Prod, 2003) come the findings set out here.

Molecules are shown by their SMILES. In brackets after ≈: the same amount, converted by molar mass. Starred links: 1 amine or outer side, 2 acyl side, 3 side chain; linkers in the order of their positions; H or OH if unused. Non-standard residues stand in square brackets, D forms with d. Residues, ends and D or L forms follow the SMILES beside them. X1 = CC(Cc1ccccc1)C(N[*:1])C(=O)[*:2]; X2 = CC(C)C(N[*:1])C(C)C(=O)[*:2]; dNMeV = CN[C@@H](C(=O)O)C(C)C; dHiv = CC(C)[C@@H](O)C(=O)O; Lac = C[C@H](O)C(=O)O

One test concerns SF-295. As to the kind of experiment: Cytotoxicity against human SF295 cells after 48 hrs by MTT method. In kind it is functional. The note with it: SF-295, 48 h. In general terms: Tetrazolium assays rely on reduction of a dye to a coloured formazan, in cell work by metabolically active cells.
The next test relates to SK-MEL-5. Description: Cytotoxicity against human SK-MEL-5 cells after 48 hrs by MTT method. In kind it is functional. Particulars: SK-MEL-5, 48 h.
The next test deals with NCI-H460. Description: Cytotoxicity against human NCI-H460 cells after 48 hrs by MTT method. The note with it: NCI-H460, 48 h. In kind it is functional.
The test system of a further test is KM-20L2. Description: Cytotoxicity against human KM20L2 cells after 48 hrs by MTT method. The test is classed as functional. Particulars: KM-20L2, 48 h.
Test [1] can be described thus: Cytotoxicity against human WHCO1 cells after 48 hrs by MTT method. The note with it: WHCO1, 48 h. In kind it is functional, cell-based.
The next test has as its system ME-180. As to the kind of experiment: Cytotoxicity against human ME180 cells after 48 hrs by MTT method. The note with it: ME-180, 48 h. In kind it is functional, cell-based.
The nature of test [2]: Cytotoxicity against human WHCO6 cells after 48 hrs by MTT method. Particulars: WHCO6, 48 h. The test is classed as functional, cell-based.

On to `CC(C)C1NC(=O)[C@@H]2CCCN2C(=O)C(C(C)Cc2ccccc2)NC(=O)[C@@H]2CCCN2C(=O)[C@@H](C(C)C)N(C)C(=O)[C@@H](C(C)C)OC(=O)[C@@H]2CCCN2C(=O)[C@H](C)OC(=O)C1C` (some centres not stated) [DOLASTATIN 16] (cyclo([Lac]P[dHiv][dNMeV]P[X1]P[X2])), for which the 50% growth inhibitory concentration (GI50) (in general, the concentration giving 50% growth inhibition) was found to be 5.2 ng/mL (≈ 5.92 nM) with SF-295, 3.3 ng/mL (≈ 3.75 nM) with SK-MEL-5, 0.96 ng/mL (≈ 1.09 nM) with NCI-H460 and 1.2 ng/mL (≈ 1.37 nM) in the test with KM-20L2.
In the case of `CC[C@H](C)[C@H]1C(=O)N2CCC[C@H]2C(=O)NC(C(C)Cc2ccccc2)C(=O)N2CCC[C@H]2C(=O)NC(C(C)C)C(C)C(=O)OC(C)C(=O)N2CCC[C@H]2C(=O)O[C@H](C(C)C)C(=O)N1C` (some centres not stated) [HOMODOLASTATIN 16], the results for the IC50 (in test [1]; in the test with ME-180; in test [2]) were 4300 ng/mL (≈ 4810 nM), 8300 ng/mL (≈ 9290 nM) and 10100 ng/mL (≈ 11300 nM), respectively.
